Measurements published in US4638070A, “Heterocyclic amino-alcohol derivatives” (Continental Pharma, priority 1980, dated 1987).

Assays:
[1] = Acute toxicity, oral, LD50 (Litchfield and Wilcoxon); settings: mouse, in vivo, fasted male mice, confidence limits p=95% in brackets
Description: (1) The acute toxicity was determined on fasted male mice. The tested substances were orally administered and LD50 values (lethal dose for 50% of animals) were calculated according to the method of Litchfield and Wilcoxon (J. Pharmacol. exp. Ther. 96, 94-113, 1949). These LD50 values are given in mg/kg and also, when possible, with their confidence limits for p=95%.

[2] = tested on: unanaesthetized, hypertension-suffering rat; test: Antihypertensive activity (systolic arterial pressure), oral; type: in vivo; settings: 60 mg/kg, hypertensive rat, 3 hours
Description: (2) The antihypertensive activity was measured on unanaesthetized, hypertension-suffering rat. The tested substances were orally given at a rate of 60 mg/kg. The systolic arterial pressure was measured every 30 minutes for 2 hours before and for 3 hours after the tested product was given. Results are expressed as follows: […]
O: no reduction of arterial pressure.
+: reduction lower than 10 mm Hg.
++: reduction of 10 to 20 mm Hg.
+++: reduction higher than 20 mm Hg.

[3] = tested on: guinea-pig ileum (histamine contractions); test: Antispasmodic activity in vitro, contractions caused by histamine; settings: added 15 minutes before spasm-producing agent
Description: (§1) (4) The antispasmodic activity was measured in vitro, on guinea-pig ileum, the contractions of which were caused by histammne (Hist.), acetylcholine (Achol) or barium chloride (BaCl2). The tested products were added to perfusion bath 15 minutes before the spasm-producing agents.
(§2) The dose is given in micograms (μg) per ml of bath causing complete spasm inhibition.

[4] = tested on: guinea-pig ileum (acetylcholine contractions); test: Antispasmodic activity in vitro, contractions caused by acetylcholine; settings: added 15 minutes before spasm-producing agent
Description: as §1, §2

[5] = tested on: femoral artery; test: Vasodilator activity, femoral artery (technique of perfused paw); type: in vivo; parameters: key: O: no action; +: slight activity; ++: effect equal to half the effect of papaverine; +++: effect equal to that of papaverine; ++++: effect higher than that of papaverine; settings: intra-arterial, 30 mg/kg, anaesthetized dog, vs papaverine at same dose
Description: (3) The vasodilator activity was measured at the level of femoral artery on anaesthetized dog (technique of perfused paw). The tested substances were given intra-arterially at the rate of 30 mg/kg. Results are expressed with respect to papaverine tested at the same dose.
++: effect equal to half the effect of papaverine.
+++: effect equal to that of papaverine.
++++: effect higher than that of papaverine.

Row | SMILES | LD50 [1] | ANTIHYPERTENSIVE ACTIVITY [2] | ANTISPASMODIC ACTIVITY HIST. (dose causing complete spasm inhibition) [3] | ANTISPASMODIC ACTIVITY ACHOL (dose causing complete spasm inhibition) [4] | VASODILATOR ACTIVITY [5]
1 | CC(NCCCCc1ccccc1)C(OC(=O)C1CCC1)c1ccc2c(c1)CCS2 (centres unmarked) [No 132] | 1900 mg/kg | +++ (reduction higher than 20 mm Hg) |  |  | 
2 | Cc1ccc(CCCCNC(C)C(O)c2ccc3c(c2)CCS3)cc1 (centres unmarked) [No 32] | 4000 mg/kg | +++ (reduction higher than 20 mm Hg) | 0.8 μg per ml | 1.7 μg per ml | 
3 | CCC(NCCOc1ccccc1)C(O)c1ccc2c(c1)CCS2 (centres unmarked) [No 126] | > 4000 mg/kg | +++ (reduction higher than 20 mm Hg) |  |  | 
4 | CCCC(=O)OC(c1ccc2c(c1)CCS2)C(C)NCCCCc1ccccc1 (centres unmarked) [No 130] | 3700 mg/kg | +++ (reduction higher than 20 mm Hg) |  |  | 
5 | CC(NCCCCc1ccccc1)C(O)c1ccc2c(c1)SCCO2 (centres unmarked) [No 122] | 1650 mg/kg | +++ (reduction higher than 20 mm Hg) | 0.3 μg per ml |  | ++++
6 | CC(NCCCCc1ccccc1)C(OC(=O)C1CCCCC1)c1ccc2c(c1)CCS2 (centres unmarked) [No 138] | > 4000 mg/kg | +++ (reduction higher than 20 mm Hg) |  |  | 
7 | CC(NCCc1ccccc1)C(O)c1ccc2c(c1)CCS2 (centres unmarked) [No 6] | < 500 mg/kg | + (reduction lower than 10 mm Hg) |  | 3.3 μg per ml | +++
8 | CCCCCCCC(=O)OC(c1ccc2c(c1)CCS2)C(C)NCCCCc1ccccc1 (centres unmarked) [No 133] | 2600 mg/kg | +++ (reduction higher than 20 mm Hg) |  |  | 
9 | CCCCCCCCCCCCCCNC(C)C(O)c1ccc2c(c1)CCCS2 (centres unmarked) [No 76] | > 4000 mg/kg | + (reduction lower than 10 mm Hg) |  |  | 
10 | CC(NCCCCc1ccccc1)C(OC(=O)C1CCCC1)c1ccc2c(c1)CCS2 (centres unmarked) [No 137] | ~1750 mg/kg | +++ (reduction higher than 20 mm Hg) |  |  | 
11 | CC1Cc2cc(C(O)C(C)NCCOCc3ccccc3)ccc2S1 (centres unmarked) [No 120] | ~1450 mg/kg | ++ (reduction of 10 to 20 mm Hg) | 0.8 μg per ml |  | +++
12 | CCCCCCCCNC(C)C(OC(=O)CC)c1ccc2c(c1)CCCS2 (centres unmarked) [No 131] | > 4000 mg/kg | + (reduction lower than 10 mm Hg) |  |  | 
13 | CC(NCCOc1ccccc1)C(O)c1ccc2c(c1)SCCS2 (centres unmarked) [No 104] | > 4000 mg/kg | + ++ | 8.3 μg per ml | 16.7 μg per ml | 
14 | COCCOCCCNC(C)C(O)c1ccc2c(c1)CCC2 (centres unmarked) [No 179] | 250 mg/kg | +++ (reduction higher than 20 mm Hg) |  |  | 
15 | CCC(NCCCCc1ccccc1)C(O)c1ccc2c(c1)CCCS2 (centres unmarked) [No 135] | > 4000 mg/kg | +++ (reduction higher than 20 mm Hg) |  |  | 
16 | COCCOCCCNC(C)C(O)c1ccc2c(c1)CCS2 (centres unmarked) [No 129] | 250 mg/kg | +++ (reduction higher than 20 mm Hg) |  |  | 
17 | CCCCCCCCNC(C)C(OC(=O)CCC)c1ccc2c(c1)CCCS2 (centres unmarked) [No 134] | > 4000 mg/kg | +++ (reduction higher than 20 mm Hg) |  |  | 
18 | C=CCCCCCCCCCNC(C)C(O)c1ccc2c(c1)CCS2 (centres unmarked) [No 92] | > 4000 mg/kg | ++ (reduction of 10 to 20 mm Hg) | 16.7 μg per ml | 16.7 μg per ml | 
19 | CCCCSCCCNC(C)C(O)c1ccc2c(c1)CCC2 (centres unmarked) [No 178] | 870 mg/kg | ++ (reduction of 10 to 20 mm Hg) | 1.7 μg per ml |  | ++++
20 | CC(NCCOc1ccccc1)C(O)c1ccc2c(c1)SCCO2 (centres unmarked) [No 123] | > 4000 mg/kg | +++ (reduction higher than 20 mm Hg) | 0.8 μg per ml |  | ++++
